One molecule from ChEMBL document CHEMBL4665648, “Potent and selective inhibitors of receptor-interacting protein kinase 1 that lack an aromatic back pocket group” (Bioorg Med Chem Lett, 2019) can be followed below.

The target of assay [1] is Mitogen-activated protein kinase kinase kinase 5 (Homo sapiens) (UniProt Q99683). Briefly: Inhibition of tracer 236 binding to recombinant human GST-tagged full length ASK1 expressed in baculovirus expression system at 10 uM incubated for 60 mins by Lanthascreen assay relative to control.
Assay [2] can be described thus: Inhibition of necroptosis in human HT-29 cells assessed as reduction in TNFalpha/BV6/zVAD-fmk-induced cell death incubated for 18 hrs by Cell Titer Glo luminescent cell viability assay. Type of assay: functional, cell-based. The settings on record: HT-29, 18 h.
Assay [3] addresses Ephrin type-A receptor 3 (Homo sapiens) (UniProt P29320). Briefly: Inhibition of tracer 236 binding to recombinant human His-tagged EPHA3 (569 to 976 residues) expressed in baculovirus expression system at 10 uM incubated for 60 mins by Lanthascreen assay relative to control.
Assay [4] concerns the target Activin receptor type-2B (Homo sapiens) (UniProt Q13705). Kind of assay: Inhibition of tracer 178 binding to recombinant human GST-tagged ACVR2B (185 to 488 residues) expressed in baculovirus expression system at 10 uM incubated for 60 mins by Lanthascreen assay relative to control.
Assay [5] deals with Cyclin-dependent kinase 1/cyclin B1 (Homo sapiens) (UniProt P06493+P14635). Kind of assay: Inhibition of recombinant human His-tagged full length CDK1/Cyclin B expressed in baculovirus expression system using Ser/Thr 18 as substrate at 10 uM incubated for 60 mins by Z'-Lyte assay relative to control.
Assay [6] addresses CDK9/cyclin T1 (Homo sapiens) (UniProt O60563+P50750). Kind of assay: Inhibition of recombinant human His-tagged full length CDK9/Cyclin T1 expressed in baculovirus expression system using CDK7/9tide as substrate at 10 uM incubated for 60 mins by Adapta assay relative to control.
Assay [7] addresses Dual specificity protein kinase CLK1 (Homo sapiens) (UniProt P49759). Briefly: Inhibition of recombinant human GST-tagged CLK1 (129 to 484 residues) expressed in Escherichia coli expression system using Ser/Thr 09 as substrate at 10 uM incubated for 60 mins by Z'-Lyte assay relative to control.
For assay [8], the target named is Tyrosine-protein kinase CSK (Homo sapiens) (UniProt P41240). Kind of assay: Inhibition of recombinant human GST-tagged full length CSK expressed in Escherichia coli expression system using Tyr 02 as substrate at 10 uM incubated for 60 mins by Z'-Lyte assay relative to control.
Assay [9] addresses Calcium/calmodulin-dependent protein kinase type II subunit beta (Homo sapiens) (UniProt Q13554). Kind of assay: Inhibition of recombinant human His-tagged full length CAMK2beta expressed in baculovirus expression system using Ser/Thr 04 as substrate at 10 uM incubated for 60 mins by Z'-Lyte assay relative to control.
In assay [10] the target is Death-associated protein kinase 1 (Homo sapiens) (UniProt P53355). Kind of assay: Inhibition of recombinant human N-terminal GST-tagged DAPK1 (1 to 363 residues) expressed in baculovirus expression system using ZIPtide as substrate at 10 uM incubated for 60 mins by Adapta assay relative to control.
Assay [11] has as its target Epidermal growth factor receptor (Homo sapiens) (UniProt P00533). Kind of assay: Inhibition of recombinant human GST-tagged EGFR (668 to 1210 residues) expressed in baculovirus expression system using Tyr 4 as substrate at 10 uM incubated for 60 mins by Z'-Lyte assay relative to control.
The subject of assay [12] is Epidermal growth factor receptor (Homo sapiens), P00533 [L858R,T790M]. Briefly: Inhibition of recombinant human GST-tagged EGFR T790M/L858R double mutant (668 to 1210 residues) expressed in baculovirus expression system using Tyr 4 as substrate at 10 uM incubated for 60 mins by Z'-Lyte assay relative to control.
Assay [13] has as its target Ephrin type-B receptor 3 (Homo sapiens) (UniProt P54753). Kind of assay: Inhibition of recombinant human GST-tagged EPHB3 (623 to 907 residues) expressed in baculovirus expression system using Tyr 02 as substrate at 10 uM incubated for 60 mins by Z'-Lyte assay relative to control.
The target in assay [14] is Receptor tyrosine-protein kinase erbB-2 (Homo sapiens) (UniProt P04626). Kind of assay: Inhibition of recombinant human His-tagged ERBB2 (676 to 1255 residues) expressed in baculovirus expression system using Tyr 06 as substrate at 10 uM incubated for 60 mins by Z'-Lyte assay relative to control.
Assay [15] addresses Mast/stem cell growth factor receptor Kit (Homo sapiens) (UniProt P10721). Briefly: Inhibition of recombinant human His-tagged KIT (544 to 976 residues) expressed in baculovirus expression system using Tyr 01 as substrate at 10 uM incubated for 60 mins by Z'-lyte assay relative to control.
In assay [16] the target is Mitogen-activated protein kinase kinase kinase 2 (Homo sapiens) (UniProt Q9Y2U5). Briefly: Inhibition of tracer 236 binding to recombinant human GST-tagged full length MEKK2 expressed in baculovirus expression system at 10 uM incubated for 60 mins by Lanthascreen assay relative to control.
Assay [17] deals with MAP kinase-interacting serine/threonine-protein kinase 1 (Homo sapiens) (UniProt Q9BUB5). Kind of assay: Inhibition of recombinant human GST-tagged full length MKNK1 expressed in insect expression system using Ser/Thr 07 as substrate at 10 uM incubated for 60 mins by Z'-lyte assay relative to control.
For assay [18], the target named is Serine/threonine-protein kinase PLK1 (Homo sapiens) (UniProt P53350). Briefly: Inhibition of recombinant human His-tagged full length PLK1 expressed in baculovirus expression system using Ser/Thr 16 as substrate at 10 uM incubated for 60 mins by Z'-lyte assay relative to control.
Assay [19] concerns the target Serine/threonine-protein kinase PLK3 (Homo sapiens) (UniProt Q9H4B4). Briefly: Inhibition of recombinant human GST-tagged PLK3 (58 to 340 residues) expressed in baculovirus expression system using Ser/Thr 16 as substrate at 10 uM incubated for 60 mins by Z'-lyte assay relative to control.
Assay [20] concerns the target Serine/threonine-protein kinase SIK2 (Homo sapiens) (UniProt Q9H0K1). Kind of assay: Inhibition of SIK2 (unknown origin) by selectscreen kinase assay. The settings on record: dose 10.0 µM, time 60.0 min.
A further assay has as its target TAK1/TAB1 (Homo sapiens) (UniProt Q15750+O43318). Kind of assay: Inhibition of tracer 236 binding to recombinant human His-tagged full length TAK1-TAB1 expressed in baculovirus expression system at 10 uM incubated for 60 mins by Lanthascreen assay relative to control.
In assay [21] the target is BDNF/NT-3 growth factors receptor (Homo sapiens) (UniProt Q16620). Kind of assay: Inhibition of recombinant human His-tagged TRKB (526 to 838 residues) expressed in baculovirus expression system using Tyr 01 as substrate at 10 uM incubated for 60 mins by Z'-Lyte assay relative to control.
Assay [22] has as its target Eukaryotic elongation factor 2 kinase (Homo sapiens) (UniProt O00418). Kind of assay: Inhibition of recombinant human GST-tagged full length EEF2K expressed in Escherichia coli expression system using Ser/Thr 24 as substrate at 10 uM incubated for 60 mins by Z'-Lyte assay relative to control.
Assay [23] has as its target Leukocyte tyrosine kinase receptor (Homo sapiens) (UniProt P29376). Kind of assay: Inhibition of recombinant human GST-tagged LTK (450 to 864 residues) expressed in baculovirus expression system using Tyr 06 as substrate at 10 uM incubated for 60 mins by Z'-Lyte assay relative to control.

Each structure is given as a SMILES string.

Chain of Serine/threonine-protein kinase PLK1 (Homo sapiens) (P53350 whole entry, the tested form may be a part): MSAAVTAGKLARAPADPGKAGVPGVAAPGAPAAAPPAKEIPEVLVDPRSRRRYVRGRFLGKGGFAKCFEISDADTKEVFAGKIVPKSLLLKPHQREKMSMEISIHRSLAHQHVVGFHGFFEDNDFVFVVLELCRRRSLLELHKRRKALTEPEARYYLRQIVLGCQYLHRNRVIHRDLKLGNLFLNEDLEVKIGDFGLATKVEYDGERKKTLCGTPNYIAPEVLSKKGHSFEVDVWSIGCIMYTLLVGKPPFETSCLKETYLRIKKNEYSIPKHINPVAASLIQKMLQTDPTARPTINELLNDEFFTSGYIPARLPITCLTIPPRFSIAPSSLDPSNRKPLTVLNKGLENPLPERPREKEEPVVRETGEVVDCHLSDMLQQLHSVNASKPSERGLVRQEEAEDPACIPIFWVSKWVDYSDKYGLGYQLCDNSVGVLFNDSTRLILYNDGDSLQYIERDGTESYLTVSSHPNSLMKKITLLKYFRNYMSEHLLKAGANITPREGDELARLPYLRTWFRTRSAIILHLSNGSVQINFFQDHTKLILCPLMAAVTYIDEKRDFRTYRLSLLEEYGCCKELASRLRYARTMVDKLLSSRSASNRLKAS
Chain of Receptor tyrosine-protein kinase erbB-2 (Homo sapiens) (P04626 whole entry, the tested form may be a part): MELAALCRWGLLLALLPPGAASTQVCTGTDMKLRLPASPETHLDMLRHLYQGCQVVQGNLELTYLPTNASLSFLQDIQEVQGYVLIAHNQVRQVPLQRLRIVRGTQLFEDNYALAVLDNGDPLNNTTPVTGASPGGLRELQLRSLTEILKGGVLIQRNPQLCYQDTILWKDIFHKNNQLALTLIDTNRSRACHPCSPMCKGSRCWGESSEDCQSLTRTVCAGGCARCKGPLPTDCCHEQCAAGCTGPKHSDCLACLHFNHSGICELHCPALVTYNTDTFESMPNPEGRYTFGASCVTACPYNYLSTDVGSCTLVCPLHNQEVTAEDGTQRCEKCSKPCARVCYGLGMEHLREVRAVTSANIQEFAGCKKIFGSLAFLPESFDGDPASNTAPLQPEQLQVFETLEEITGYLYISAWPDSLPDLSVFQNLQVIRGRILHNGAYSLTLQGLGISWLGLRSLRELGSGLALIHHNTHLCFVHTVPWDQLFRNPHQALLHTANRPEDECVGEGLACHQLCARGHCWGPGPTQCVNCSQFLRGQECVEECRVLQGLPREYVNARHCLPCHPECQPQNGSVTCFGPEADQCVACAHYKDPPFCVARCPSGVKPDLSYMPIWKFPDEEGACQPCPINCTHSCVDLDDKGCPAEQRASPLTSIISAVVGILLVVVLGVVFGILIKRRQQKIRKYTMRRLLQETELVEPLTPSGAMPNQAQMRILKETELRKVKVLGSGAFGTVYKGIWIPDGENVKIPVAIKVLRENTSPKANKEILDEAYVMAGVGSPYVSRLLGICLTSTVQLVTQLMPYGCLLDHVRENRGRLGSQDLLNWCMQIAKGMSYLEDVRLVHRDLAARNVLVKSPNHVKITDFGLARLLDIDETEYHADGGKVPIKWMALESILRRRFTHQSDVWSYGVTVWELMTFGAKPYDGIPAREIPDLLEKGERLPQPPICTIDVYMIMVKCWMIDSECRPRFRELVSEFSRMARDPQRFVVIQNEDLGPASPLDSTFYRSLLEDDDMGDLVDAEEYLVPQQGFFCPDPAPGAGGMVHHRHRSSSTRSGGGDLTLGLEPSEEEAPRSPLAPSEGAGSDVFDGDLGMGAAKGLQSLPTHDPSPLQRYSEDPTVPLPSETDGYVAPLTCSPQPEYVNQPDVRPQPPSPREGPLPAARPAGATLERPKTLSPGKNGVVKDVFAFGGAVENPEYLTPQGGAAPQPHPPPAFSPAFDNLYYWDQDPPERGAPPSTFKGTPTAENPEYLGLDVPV
Chain of Dual specificity protein kinase CLK1 (Homo sapiens) (P49759 whole entry, looked up, the tested form may be a part): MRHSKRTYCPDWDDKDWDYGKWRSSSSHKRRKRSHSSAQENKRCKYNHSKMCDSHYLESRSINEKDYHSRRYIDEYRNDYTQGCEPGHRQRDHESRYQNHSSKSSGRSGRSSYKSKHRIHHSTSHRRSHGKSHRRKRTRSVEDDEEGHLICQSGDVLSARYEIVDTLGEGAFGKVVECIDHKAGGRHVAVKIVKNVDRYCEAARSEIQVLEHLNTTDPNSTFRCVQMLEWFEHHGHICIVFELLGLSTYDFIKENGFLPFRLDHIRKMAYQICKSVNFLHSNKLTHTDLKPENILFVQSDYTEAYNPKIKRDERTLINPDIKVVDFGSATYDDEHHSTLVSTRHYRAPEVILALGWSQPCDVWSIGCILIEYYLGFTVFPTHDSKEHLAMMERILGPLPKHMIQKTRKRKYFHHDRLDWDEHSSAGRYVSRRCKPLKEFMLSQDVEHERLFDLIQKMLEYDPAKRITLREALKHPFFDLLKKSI
Chain of Serine/threonine-protein kinase PLK3 (Homo sapiens) (Q9H4B4 whole entry, looked up, the tested form may be a part): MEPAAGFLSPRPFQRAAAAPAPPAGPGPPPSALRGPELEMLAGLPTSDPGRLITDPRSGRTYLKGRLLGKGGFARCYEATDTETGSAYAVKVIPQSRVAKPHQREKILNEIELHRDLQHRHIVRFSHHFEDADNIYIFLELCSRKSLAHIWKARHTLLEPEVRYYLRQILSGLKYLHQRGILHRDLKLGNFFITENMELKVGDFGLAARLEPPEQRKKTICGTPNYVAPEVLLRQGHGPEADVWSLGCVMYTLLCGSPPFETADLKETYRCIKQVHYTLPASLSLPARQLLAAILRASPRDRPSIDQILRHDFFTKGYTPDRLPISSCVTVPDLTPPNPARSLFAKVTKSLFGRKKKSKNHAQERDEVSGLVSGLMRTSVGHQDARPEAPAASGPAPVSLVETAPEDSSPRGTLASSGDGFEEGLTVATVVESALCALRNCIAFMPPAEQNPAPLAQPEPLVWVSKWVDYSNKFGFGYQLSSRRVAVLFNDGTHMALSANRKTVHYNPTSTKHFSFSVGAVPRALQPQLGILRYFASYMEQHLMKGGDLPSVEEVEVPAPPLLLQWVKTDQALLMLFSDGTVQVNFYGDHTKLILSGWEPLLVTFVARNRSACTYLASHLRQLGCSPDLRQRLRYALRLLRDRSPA
Chain of Ephrin type-B receptor 3 (Homo sapiens) (P54753 whole entry, the tested form may be a part): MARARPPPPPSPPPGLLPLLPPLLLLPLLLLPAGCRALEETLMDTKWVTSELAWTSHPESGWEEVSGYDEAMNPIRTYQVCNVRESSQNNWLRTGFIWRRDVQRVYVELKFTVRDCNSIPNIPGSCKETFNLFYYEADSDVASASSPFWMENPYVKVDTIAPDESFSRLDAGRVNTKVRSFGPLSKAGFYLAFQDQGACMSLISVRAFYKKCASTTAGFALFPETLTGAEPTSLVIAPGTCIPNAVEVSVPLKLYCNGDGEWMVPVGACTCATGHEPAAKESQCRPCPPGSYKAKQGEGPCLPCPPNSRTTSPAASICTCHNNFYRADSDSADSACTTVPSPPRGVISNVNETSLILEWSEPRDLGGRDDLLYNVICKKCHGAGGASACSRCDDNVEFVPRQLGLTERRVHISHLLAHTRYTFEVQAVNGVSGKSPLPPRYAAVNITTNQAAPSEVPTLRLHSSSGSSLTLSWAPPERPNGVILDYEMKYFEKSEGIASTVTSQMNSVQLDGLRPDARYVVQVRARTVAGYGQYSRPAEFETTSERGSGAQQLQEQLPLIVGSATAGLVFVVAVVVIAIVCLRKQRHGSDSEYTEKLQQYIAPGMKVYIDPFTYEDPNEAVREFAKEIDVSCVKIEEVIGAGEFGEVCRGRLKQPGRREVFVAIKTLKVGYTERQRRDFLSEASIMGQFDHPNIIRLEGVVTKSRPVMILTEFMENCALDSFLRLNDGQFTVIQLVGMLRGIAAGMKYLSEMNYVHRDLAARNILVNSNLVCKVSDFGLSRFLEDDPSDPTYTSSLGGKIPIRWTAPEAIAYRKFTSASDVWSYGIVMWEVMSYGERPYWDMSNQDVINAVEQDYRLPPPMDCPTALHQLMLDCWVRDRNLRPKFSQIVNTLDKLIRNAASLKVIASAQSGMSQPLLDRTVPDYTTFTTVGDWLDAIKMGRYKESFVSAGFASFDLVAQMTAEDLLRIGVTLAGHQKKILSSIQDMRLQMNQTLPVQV
Chain of Calcium/calmodulin-dependent protein kinase type II subunit beta (Homo sapiens) (Q13554 whole entry, the tested form may be a part): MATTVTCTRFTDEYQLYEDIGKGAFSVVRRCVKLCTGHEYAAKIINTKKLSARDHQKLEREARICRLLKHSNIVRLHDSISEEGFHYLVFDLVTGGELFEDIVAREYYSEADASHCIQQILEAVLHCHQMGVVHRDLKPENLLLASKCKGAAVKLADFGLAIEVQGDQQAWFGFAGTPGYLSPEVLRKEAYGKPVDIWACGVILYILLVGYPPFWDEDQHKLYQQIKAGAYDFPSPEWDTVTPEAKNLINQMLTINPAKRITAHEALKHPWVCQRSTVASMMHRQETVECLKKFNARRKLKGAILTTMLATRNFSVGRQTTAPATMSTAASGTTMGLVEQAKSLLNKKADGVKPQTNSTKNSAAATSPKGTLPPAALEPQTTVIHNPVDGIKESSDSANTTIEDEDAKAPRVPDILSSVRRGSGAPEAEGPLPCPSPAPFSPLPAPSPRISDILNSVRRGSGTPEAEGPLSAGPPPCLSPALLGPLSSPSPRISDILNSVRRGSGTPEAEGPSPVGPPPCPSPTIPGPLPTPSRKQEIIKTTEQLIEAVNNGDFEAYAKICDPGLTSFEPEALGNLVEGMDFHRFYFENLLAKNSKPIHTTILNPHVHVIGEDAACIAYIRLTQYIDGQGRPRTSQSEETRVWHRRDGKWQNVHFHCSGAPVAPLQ

Turning to `CN1C(=O)[C@@H](NC(=O)c2n[nH]c3ncc(C(F)(F)C(F)(F)F)cc23)COc2ccccc21`, the inhibition was 0.5% in [1]; 5.5% in assay [3]; -0.5% in [4]; 3% in [5]; 6% in assay [6]; 3.5% in [7]. Besides, the inhibition was 2.5% in [8]; -1% in [9]; 0.5% in assay [10]; -5% in assay [11]; 7% in [12]; 1% in assay [13]. The inhibition in [14] was 2%; in assay [15] it was -5.5%; in [16], -1%; in assay [17], 7%; in assay [18] it was 2.5%; in assay [19], 7%. The inhibition in assay [20] came out at 3%; on TAK1/TAB1 (Homo sapiens), 7.5%; in [21], 0.5%; in assay [22], 6%; in assay [23], 2%. In assay [2], the EC50 worked out at 54 nM.
